The source of these data is patent publication US11111251B2, “Positive allosteric modulators of the muscarinic acetylcholine receptor M1” (Vanderbilt University, priority 2016, dated 2021).

pEC50: −log10 of the molar value.

In the test the target is T1, human mAChR M1 (Homo sapiens, UniProt P11229).
T1 sequence (P11229 1-460): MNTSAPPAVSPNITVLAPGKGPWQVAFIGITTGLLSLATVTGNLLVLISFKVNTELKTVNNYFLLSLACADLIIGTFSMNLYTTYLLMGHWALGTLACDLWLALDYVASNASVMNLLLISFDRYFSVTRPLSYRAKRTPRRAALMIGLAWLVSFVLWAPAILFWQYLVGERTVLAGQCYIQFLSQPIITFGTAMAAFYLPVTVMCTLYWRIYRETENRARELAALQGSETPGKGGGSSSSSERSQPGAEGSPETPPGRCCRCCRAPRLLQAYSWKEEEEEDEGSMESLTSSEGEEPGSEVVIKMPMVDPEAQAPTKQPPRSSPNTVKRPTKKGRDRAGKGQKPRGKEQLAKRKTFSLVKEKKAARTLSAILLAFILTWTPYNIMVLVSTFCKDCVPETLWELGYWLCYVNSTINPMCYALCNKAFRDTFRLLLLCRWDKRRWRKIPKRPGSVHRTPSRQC
Description: mAChR M1 cell-based functional assay: calcium mobilization, positive allosteric modulator mode (increase in EC20 acetylcholine response). To be noted: Table 2, human M1; for pEC50: read-out: Human M1 EC50; for Emax: read-out: Human M1 Emax (%). The procedure, abridged:
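PAM potency reflects the concentration-dependent increase in calcium response to an EC20 acetylcholine challenge, given 144 s into a 300 s read after compound addition at 4 s (EC80 follows at 230 s). Cells were hM1-expressing CHO-K1, loaded 50 min with Fluo-4 AM. Curves used 11 points at 1:3 dilutions and four-parameter logistic fitting.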
(In general: Calcium assays in cells follow changes in intracellular calcium, usually with a dye or a luminescent sensor.)

Consider `O=C(N[C@H]1CC[C@@H]1O)c1cc(Cc2ccc(-c3nccs3)cc2)c2sccc2n1` [Compound 297, N-[(1S,2S)-2-hydroxycyclobutyl]-7-[(4-thiazol-2-ylphenyl)methyl]thieno[3,2-b]pyridine-5-carboxamide], for which the pEC50 was 6.65 and the Emax was 76.4%.
Turning to `O=C(NC1CCOC1)c1cc(Cc2ccc(-n3cccn3)cc2)c2sccc2n1` (stereo not drawn) [Compound 440, 7-[(4-pyrazol-1-ylphenyl)methyl]-N-tetrahydrofuran-3-yl-thieno[3,2-b]pyridine-5-carboxamide], the pEC50 is 5.71 and the maximal response (Emax) was determined as 69.3%.
The matching figures for `CC1(O)CCN(C(=O)c2cc(Cc3ccc(-n4cccn4)cc3)c3sccc3n2)CC1` [Compound 82, (4-hydroxy-4-methyl-1-piperidyl)-[7-[(4-pyrazol-1-ylphenyl)methyl]thieno[3,2-b]pyridin-5-yl]methanone]: below 5.00 and 70.4%.
On the same counts, the results for `Cn1ccc(-c2ccc(Cc3cc(C(=O)N[C@H]4CCOC[C@@H]4O)nc4ccn(C)c34)cc2)n1` [Compound 474, N-[(3R,4S)-3-hydroxytetrahydropyran-4-yl]-1-methyl-7-[[4-(1-methylpyrazol-3-yl)phenyl]methyl]pyrrolo[3,2-b]pyridine-5-carboxamide] are 8.19 and 70.4%.
On the same counts, the results for `Cn1cc(-c2ccc(Cc3cc(C(=O)NC4CN(C5COC5)C4)nc4ccsc34)cn2)cn1` [Compound 364] are 6.08 and 83.8%.
With `O=C(c1cc(Cc2ccc(-n3cccn3)cc2)c2sccc2n1)N1CCNCC1` [Compound 83, piperazin-1-yl-[7-[(4-pyrazol-1-ylphenyl)methyl]thieno[3,2-b]pyridin-5-yl]methanone], the pEC50 was below 5.00 and the Emax was 52.9%.
On the same counts, the results for `O=C(NC1CCCCNC1=O)c1cc(Cc2ccc(C(F)(F)F)nc2)c2sccc2n1` (stereo not drawn) [Compound 98, N-(2-oxoazepan-3-yl)-7-[[6-(trifluoromethyl)-3-pyridyl]methyl]thieno[3,2-b]pyridine-5-carboxamide] are 5.22 and 66.6%.
On the same counts, the results for `Cc1ccc(Cc2cc(C(=O)N[C@H]3CCCNC3)nc3ccsc23)cn1` [Compound 266, 7-[(6-methyl-3-pyridyl)methyl]-N-[(3S)-3-piperidyl]thieno[3,2-b]pyridine-5-carboxamide] are below 5.00 and 59.3%.
On the same counts, the results for `CO[C@@H]1CCCC[C@H]1NC(=O)c1cc(Cc2cnc(C)nc2)c2sccc2n1` [Compound 130, N-[(1R,2R)-2-methoxycyclohexyl]-7-[(2-methylpyrimidin-5-yl)methyl]thieno[3,2-b]pyridine-5-carboxamide] are below 5.00 and 20.1%.
On to `Cn1ccc(-c2ccc(Cc3cc(C(=O)NCC4CCCCO4)nc4ccsc34)cn2)n1` (stereo not drawn) [Compound 359, 7-[[6-(1-methylpyrazol-3-yl)-3-pyridyl]methyl]-N-(tetrahydropyran-2-ylmethyl)thieno[3,2-b]pyridine-5-carboxamide], for which the pEC50 is 6.24 and the Emax stood at 83.4%.
On the same counts, the results for `O=C(NC1CCOCC1)c1cc(C(=O)c2ccc(-n3cccn3)cc2)c2sccc2n1` [Compound 264, 7-(4-pyrazol-1-ylbenzoyl)-N-tetrahydropyran-4-yl-thieno[3,2-b]pyridine-5-carboxamide] are below 5.00 and 72.7%.
On the same counts, the results for `Cn1cc(-c2ccc(Cc3cc(C(=O)NC4CC5(COC5)C4)nc4ccsc34)cc2)nn1` [Compound 175, 7-[[4-(1-methyltriazol-4-yl)phenyl]methyl]-N-(2-oxaspiro[3.3]heptan-6-yl)thieno[3,2-b]pyridine-5-carboxamide] are 7.75 and 84.3%.

As a reminder, the pEC50 is the negative decadic logarithm of the EC50, by convention in mol/L. One may read the Emax as the size of the effect at its maximum, as opposed to the concentration needed.
